# From ChEMBL document CHEMBL4028802, “DILIrank: the largest reference drug list ranked by the risk for developing drug-induced liver injury in humans” (Drug Discov Today, 2016)
# Experiments:
# Homo sapiens [1] = organism: Homo sapiens; test: Liver toxicity in human assessed as induction of drug-induced liver injury by measuring severity class index
# Homo sapiens [2] = organism: Homo sapiens; test: Liver toxicity in human assessed as induction of drug-induced liver injury by measuring verified drug-induced liver injury concern status
# For DILI severity class in this document: key of the grades not given here.
SMILES,DILI_severity_class (Homo sapiens [1]),DILI_Concern (Homo sapiens [2])
COc1ccc2[nH]c([S+]([O-])Cc3ncc(C)c(OC)c3C)nc2c1 (stereo not given) [OMEPRAZOLE],4,Less-Dili-Concern
Cc1nccn1CC1CCc2c(c3ccccc3n2C)C1=O (stereo not given) [ONDANSETRON],7,Less-Dili-Concern
CCCCCCCCCCC[C@@H](C[C@@H]1OC(=O)[C@H]1CCCCCC)OC(=O)[C@H](CC(C)C)NC=O [ORLISTAT],8,Most-Dili-Concern
Cc1ccccc1C(OCCN(C)C)c1ccccc1 (stereo not given) [ORPHENADRINE],0,No-Dili-Concern
CCOC(=O)C1=C[C@@H](OC(CC)CC)[C@H](NC(C)=O)[C@@H](N)C1 [OSELTAMIVIR],3,Ambiguous-Dili-Concern
Cc1onc(-c2ccccc2)c1C(=O)N[C@@H]1C(=O)N2[C@@H]1SC(C)(C)[C@@H]2C(=O)O [OXACILLIN],3,Less-Dili-Concern
C[C@]12COC(=O)C[C@@H]1CC[C@@H]1[C@@H]2CC[C@@]2(C)[C@H]1CC[C@]2(C)O [OXANDROLONE],8,Most-Dili-Concern
O=C(O)CCc1nc(-c2ccccc2)c(-c2ccccc2)o1 [OXAPROZIN],3,Less-Dili-Concern
O=C1Nc2ccc(Cl)cc2C(c2ccccc2)=NC1O (stereo not given) [OXAZEPAM],5,Ambiguous-Dili-Concern
NC(=O)N1c2ccccc2CC(=O)c2ccccc21 [OXCARBAZEPINE],3,Less-Dili-Concern
O=C(O)CCCO [OXYBATE],0,No-Dili-Concern
CCN(CC)CC#CCOC(=O)C(O)(c1ccccc1)C1CCCCC1 (stereo not given) [OXYBUTYNIN],0,No-Dili-Concern
COc1ccc2c3c1O[C@H]1C(=O)CC[C@@]4(O)[C@@H](C2)N(C)CC[C@]314 [OXYCODONE],0,No-Dili-Concern
C[C@]12C/C(=C/O)C(=O)C[C@@H]1CC[C@@H]1[C@@H]2CC[C@@]2(C)[C@H]1CC[C@]2(C)O [OXYMETHOLONE],7,Most-Dili-Concern
CN1CC[C@]23c4c5ccc(O)c4O[C@H]2C(=O)CC[C@@]3(O)[C@H]1C5 [OXYMORPHONE],0,No-Dili-Concern
O=C1Nc2ccccc2C1(c1ccc(O)cc1)c1ccc(O)cc1 [OXYPHENISATINE],8,Most-Dili-Concern
CN(C)[C@@H]1C(O)=C(C(N)=O)C(=O)[C@@]2(O)C(O)=C3C(=O)c4c(O)cccc4[C@@](C)(O)[C@H]3[C@H](O)[C@@H]12 [OXYTETRACYCLINE],2,Ambiguous-Dili-Concern
CC[C@H](C)[C@@H]1NC(=O)[C@H](Cc2ccc(O)cc2)NC(=O)[C@@H](N)CSSC[C@@H](C(=O)N2CCC[C@H]2C(=O)N[C@@H](CC(C)C)C(=O)NCC(N)=O)NC(=O)[C@H](CC(N)=O)NC(=O)[C@H](CCC(N)=O)NC1=O [OXYTOCIN],0,No-Dili-Concern
CC(=O)O[C@H]1C(=O)[C@@]2(C)[C@H]([C@H](OC(=O)c3ccccc3)[C@]3(O)C[C@H](OC(=O)[C@H](O)[C@@H](NC(=O)c4ccccc4)c4ccccc4)C(C)=C1C3(C)C)[C@]1(OC(C)=O)CO[C@@H]1C[C@@H]2O [PACLITAXEL],4,Less-Dili-Concern
CONC(=N)c1ccc(-c2ccc(-c3ccc(C(=N)NOC)cc3)o2)cc1 [PAFURAMIDINE],8,Most-Dili-Concern
Cc1nc2n(c(=O)c1CCN1CCC(c3noc4cc(F)ccc34)CC1)CCCC2O (stereo not given) [PALIPERIDONE],0,No-Dili-Concern
O=C1c2cccc3c2[C@H](CCC3)CN1[C@@H]1CN2CCC1CC2 [PALONOSETRON],4,Ambiguous-Dili-Concern
CC(C)(N)CO.Cn1c(=O)c2[nH]c(Br)nc2n(C)c1=O [PAMABROM],0,No-Dili-Concern
NCCC(O)(P(=O)(O)O)P(=O)(O)O [PAMIDRONIC ACID],3,Ambiguous-Dili-Concern
CC(=O)O[C@H]1C[C@@H]2CC[C@@H]3[C@H](CC[C@@]4(C)[C@H]3C[C@H]([N+]3(C)CCCCC3)[C@@H]4OC(C)=O)[C@@]2(C)C[C@@H]1[N+]1(C)CCCCC1 [PANCURONIUM],0,No-Dili-Concern

SMILES,DILI_severity_class (Homo sapiens [1]),DILI_Concern (Homo sapiens [2])
COc1ccnc(C[S+]([O-])c2nc3ccc(OC(F)F)cc3[nH]2)c1OC (stereo not given) [PANTOPRAZOLE],3,Less-Dili-Concern
COc1ccc(Cc2nccc3cc(OC)c(OC)cc23)cc1OC [PAPAVERINE],5,Most-Dili-Concern
C[C@H](/C=C/[C@H](C)C(C)(C)O)[C@H]1CC[C@H]2/C(=C/C=C3C[C@@H](O)C[C@H](O)C3)CCC[C@]12C [PARICALCITOL],3,Ambiguous-Dili-Concern
NC[C@@H]1O[C@H](O[C@H]2[C@@H](O)[C@H](O[C@@H]3[C@@H](O)[C@H](N)C[C@H](N)[C@H]3O[C@H]3O[C@H](CO)[C@@H](O)[C@H](O)[C@H]3N)O[C@@H]2CO)[C@H](N)[C@@H](O)[C@@H]1O [PAROMOMYCIN],0,No-Dili-Concern
Fc1ccc([C@@H]2CCNC[C@H]2COc2ccc3c(c2)OCO3)cc1 [PAROXETINE],8,Less-Dili-Concern
Nc1nc2[nH]cc(CCc3ccc(C(=O)N[C@@H](CCC(=O)O)C(=O)O)cc3)c2c(=O)[nH]1 [PEMETREXED],3,Ambiguous-Dili-Concern
NC1=NC(=O)C(c2ccccc2)O1 (stereo not given) [PEMOLINE],8,Most-Dili-Concern
CC(C)(C)NC[C@H](O)COc1ccccc1C1CCCC1 [PENBUTOLOL],0,No-Dili-Concern
CC(C)(S)[C@@H](N)C(=O)O [PENICILLAMINE],2,Less-Dili-Concern
CC1(C)S[C@@H]2[C@H](NC(=O)Cc3ccccc3)C(=O)N2[C@H]1C(=O)O [PENICILLIN G],3,Less-Dili-Concern
CC1(C)S[C@@H]2[C@H](NC(=O)COc3ccccc3)C(=O)N2[C@H]1C(=O)O [PENICILLIN V],0,No-Dili-Concern
CSCC[C@H](NC(=O)[C@H](Cc1c[nH]c2ccccc12)NC(=O)CCNC(=O)OC(C)(C)C)C(=O)N[C@@H](CC(=O)O)C(=O)N[C@@H](Cc1ccccc1)C(N)=O [PENTAGASTRIN],0,No-Dili-Concern
N=C(N)c1ccc(OCCCCCOc2ccc(C(=N)N)cc2)cc1 [PENTAMIDINE],3,Less-Dili-Concern
O=C(O)CN(CCN(CC(=O)O)CC(=O)O)CCN(CC(=O)O)CC(=O)O [PENTETIC ACID],0,No-Dili-Concern
CCCC(C)C1(CC)C(=O)NC(=O)NC1=O (stereo not given) [PENTOBARBITAL],3,Ambiguous-Dili-Concern
OC[C@H]1O[C@@H](n2cnc3c2NC=NC[C@H]3O)C[C@@H]1O [PENTOSTATIN],3,Most-Dili-Concern
CC(=O)CCCCn1c(=O)c2c(ncn2C)n(C)c1=O [PENTOXIFYLLINE],5,Ambiguous-Dili-Concern
CCCN1C[C@H](CSC)C[C@@H]2c3cccc4[nH]cc(c34)C[C@H]21 [PERGOLIDE],3,Ambiguous-Dili-Concern
C1CCC(C(CC2CCCCN2)C2CCCCC2)CC1 (stereo not given) [PERHEXILINE],8,Most-Dili-Concern
CCC[C@H](N[C@@H](C)C(=O)N1[C@H](C(=O)O)C[C@@H]2CCCC[C@@H]21)C(=O)OCC [PERINDOPRIL],3,Ambiguous-Dili-Concern
OCCN1CCN(CCCN2c3ccccc3Sc3ccc(Cl)cc32)CC1 [PERPHENAZINE],3,Less-Dili-Concern
C[C@H]1[C@H](c2ccccc2)OCCN1C [PHENDIMETRAZINE],0,No-Dili-Concern
NNCCc1ccccc1 [PHENELZINE],3,Less-Dili-Concern
CCC1(c2ccccc2)C(=O)NC(=O)NC1=O [PHENOBARBITAL],3,Less-Dili-Concern
CC(COc1ccccc1)N(CCCl)Cc1ccccc1 (stereo not given) [PHENOXYBENZAMINE],0,No-Dili-Concern
